Where two headings read alike, the source gives them in different places. Where a SMILES comes first, the peptide text is derived from it. [ ]: non-standard residue; d: D form. ξ: configuration not given here. ξαMeF = CC(N)(Cc1ccccc1)C(=O)O; Aib = CC(C)(N)C(=O)O
Experiments:
[1] = test system: DP BB rats (Diabetes-Prone BioBreeding rats); test: CD31 immunohistochemistry and quantitative analysis of neovascular tuft formations in retinas of DP BB rats; format: in vivo, rat; details: daily s.c., peptide groups E, F, insulin alone group C, peptide+insulin group D
Experimental: The state of vascularization of the retina of the treated animals was studied on the whole retinas, using antibodies directed against CD31 (BD Biosciences, San Diego, Calif., USA), an important marker for the endothelial cells. The immunohistochemical tests on the retinas and quantitative analysis of the neovascular tuft formations, vascular and avascular areas, were conducted as reported in the literature (Exp Eye Res. 2013; 111:27-35; Invest Ophthalmol Vis Sci. 2012; 53:2181-2192; J Neurochem. 2011; 119:1317-1329; Invest Ophthalmol Vis Sci. 2006; 47:2125-2134). […]
The retinal vascularization images were acquired with an epifluorescence microscope (Eclipse E800; Nikon Corp., Amsterdam, Netherlands) using a digital camera converter (SD-Filc camera; Nikon Corp.). The electronic images were processed with image-processing software (Adobe Photoshop; Adobe Systems, Inc., Mountain View, Calif., USA) to allow quantitative analysis of the results. For each experimental condition, the quantitative data originated from 20 retinas of 10 different rats.
Table 3—Immunohistochemical tests on retinas and quantitative analysis of neovascular tuft formations. […] The electronic images were processed with image-processing software (Adobe Photoshop; Adobe Systems, Inc., Mountain View, Calif., USA) to allow quantitative analysis of the results. […]

[2] = test system: SD-STZ rats (Sprague-Dawley rats rendered diabetic with streptozotocin); test: Immunohistochemistry and quantitative analysis of neovascular tuft formations in retinas of SD-STZ rats; format: in vivo, rat; details: daily administration, peptide groups C and E, insulin alone group D
Excerpt: 5) subcutaneously twice a day.
For each experimental condition, the quantitative data originated from 20 retinas of 10 different rats.
Table 5—Immunohistochemical tests on retinas and quantitative analysis of neovascular tuft formations. The state of vascularization of the retina of the treated animals was studied as reported in example 2. For each experimental condition, the quantitative data originated from 20 retinas of 10 different rats. […] The areas of neovascularization are expressed as the ratio between the area of neovascularization present in the animals which are not yet diabetic (Group A≈0.1% of the retinal area) and that of the group. […] 5) subcutaneously twice a day.

[3] = test system: SD-STZ rats (Sprague-Dawley rats rendered diabetic with streptozotocin); test: Retinal function by ERG (SOPs) in rats rendered diabetic with streptozotocin; details: daily administration, peptide groups C and E, insulin alone printed as groups B and D
Experimental: (§1) The severity of the diabetic state was evaluated by daily monitoring of body weight, clinical signs and blood glucose levels.
(§2) The dose of STZ was prepared at the time of use by dissolving the compound in 0.05M citrate buffer, pH 4.5. For the STZ administration, the animals were placed in the dorsal position and the injection site was disinfected and buffered with an iodine-povidone solution; the i.p. injection was performed in the caudal abdominal cavity of the rats, using a sterile 25 g needle. The severity of the diabetes caused by administration of STZ was monitored daily, evaluating blood glucose levels with the One-Touch profile (LifeScan, Milpitas, Calif.), every day; urine glucose with Clinistix (Bayer Diagnostica, Basingstoke, United Kingdom), twice a week; insulin levels, twice a week, with an RIA Kit (BioRad, Milan, Italy).
(§3) 5) subcutaneously twice a day. The retinal functionality of the animals in each group was evaluated by ERG before euthanasia and removal of the retinas for quantitative histochemical analysis.
(§4) Retinal function was evaluated by ERG, as reported in detail in example 2.
(§5) The study design involved 5 groups of 10 rats, 5 male and 5 female. […]

[4] = test system: DP BB rats (Diabetes-Prone BioBreeding rats); test: Retinal function by scotopic full-field ERG (SOPs) in diabetes-prone BioBreeding rats; details: daily s.c., peptide groups E, F, insulin alone group C, peptide+insulin group D
Experimental: (§6) The efficacy of formulation 3, described in example 1, in the treatment of the retinal vascular alterations associated with diabetes, was evaluated using as experimental model DP BB rats (Diabetes-Prone BioBreeding rats, M&B Bomholtvej, Denmark), analyzing the retinal function of the treated animals by electroretinography (ERG) and the state of vascularization of the retina by quantitative immunohistochemical techniques.
(§7) 60 3-week old DP BB rats of both sexes (30 male and 30 female) were used. […] The animals were observed from the 3rd to 30th weeks of life, monitoring various parameters, including weight, blood glucose, urine glucose and blood insulin. In particular, the onset of diabetes was evaluated by measuring blood glucose with the One-Touch profile (LifeScan, Milpitas, Calif.) twice a week, and every day from the 13th week; urine glucose with Clinistix (Bayer Diagnostica, Basingstoke, United Kingdom), twice a week; insulin levels twice a week, with an RIA Kit (BioRad, Milan, Italy). […]
(§8) The retinal functionality of the animals in each group was evaluated by ERG before euthanasia and removal of the retinas for quantitative histochemical analysis.
(§9) Retinal functionality was evaluated by ERG, using a scotopic full-field ERG. […] The wave amplitude was measured at a fixed time of 8 ms from the stimulus, to minimise non-photoreceptor contamination. […]

[5] = test system: DP BB rats (Diabetes-Prone BioBreeding rats); details: rat, in vivo, sc
Experimental: as §6, §7, §8, §9

[6] = test system: SD-STZ rats (Sprague-Dawley rats rendered diabetic with streptozotocin); details: rat, in vivo
Experimental: as §1, §2, §3, §4, §5

insulin
effect on retinal vascular damage / NTA, in words (Table 3) [1]: causes a major increase in NTA
effect on retinal vascular damage / NTA, in words (Table 5) [2]: leads to a major increase in NTA
effect on retinal vascular damage, in words (Table 4) [3]: gives rise to major retinal vascular damage
effect on retinal vascular damage / eyesight, in words (Table 2) [4]: causes major retinal vascular damage

CC(=O)N[C@@H](CCCNC(=N)N)C(=O)NC(C)(C)C(=O)N[C@@H](CCCNC(=N)N)C(=O)NC(C)(Cc1ccccc1)C(N)=O (stereo partly drawn) [Ac-Arg-Aib-Arg-α(Me)Phe-NH2] (Ac-R[Aib]R[ξαMeF]-NH2)
effect on retinal vascular damage / eyesight, in words (Table 2) [5]: prevent the formation of retinal vascular damage

CC(=O)NC(C)(C)C(=O)N[C@@H](CCCNC(=N)N)C(=O)NC(C)(C)C(=O)N[C@@H](CCCNC(=N)N)C(=O)NC(C)(Cc1ccccc1)C(N)=O (stereo partly drawn) [Ac-Aib-Arg-Aib-Arg-α(Me)Phe-NH2] (Ac-[Aib]R[Aib]R[ξαMeF]-NH2)
effect on retinal vascular damage, in words (Table 4) [6]: prevent ab initio the formation of retinal vascular damage

Reference: patent US20180326014A1, “PHARMACEUTICAL FORMULATIONS FOR THE TREATMENT OF DIABETES” (KALEYDE PHARMACEUTICALS AG, priority 2016, published 2018)
